# Laboratory results from patent publication US8158811B2, “Unsaturated fatty hydroxy acid derivatives and the dermocosmetologic use thereof” (Pierre Fabre Dermo-Cosmetique, priority 2005, dated 2012).
# What was measured:
# ABCG1 = test: keratinocyte differentiation, real-time RT-PCR of ABCG1 transcripts; format: cell-based, human; settings: NHK, 48 hours
# Description: (§1) Normal human keratinocytes (NHK) proliferate and differentiate in vitro, forming stratified layers which mimic the basal organisation of the skin. Extracellular calcium concentrations in excess of 0.1 mM initiate a cascade of genome and non-genome events which take the keratinocytes from a proliferative phase towards a differentiation phase. Keratinocyte differentiation can then be evaluated by studying the expression of several markers such as keratins 1 and 10, transglutaminase 1, desaturase DES2, involucrine, FATP4 and ABCG1 transporters. We therefore evaluated the effect of certain hydroxyalcene carboxylic acids in an in vitro culture model.
# (§2) Normal human keratinocytes are isolated from skin explants. They are cultured in KSFM medium (Gibco) with a low calcium content (0.1 mM) containing 25 μg/ml of BPE (bovine pituitary extract) and […] of EGF (epithelium growth factor). 24 hours after culturing, differentiation is triggered by the addition of calcium (final concentration 1.2 mM). The active ingredients are added or not at the same time as calcium at concentrations of 100 and 1 μg/ml in order to determine whether or not they have a potentialising effect on differentiation. Cells were then analysed 48 hours after the addition of calcium and these products.
# (§3) Total RNA was extracted under cold conditions from keratinocytes.
# (§4) After reverse transcription of mRNA into cDNA, PCRs were made up in 96 well plates (iCycler quantitative PCR apparatus, BioRad). Expression of transcripts of transglutaminase, desaturase (DES2), ABCG1 and FATP4 were standardized with respect to the expression of reference genes (GAPDH, UBC, HPRT).
# [1] = test system: intracellular AOSs, fibroblast line L929; test: in vitro assay of intracellular AOSs (H2DCF-DA probe) after H2O2/iron oxidative stress; format: cell-based, murin; settings: pre-incubation 3 h, L929
# From the text: We set up an in vitro study model of oxidative stress induced by H2O2/iron as H2O2 generates huge amounts of intracellular AOSs as a result of a chain reaction triggered by oxidation of membrane lipids.
# This technique is based on the use of a fluorescent probe, 6-carboxy-2′,7′-dichlorodihydro fluorescein diacetate, di (acetoxymethyl ester) (H2DCF-DA) which once it penetrates into the cell is deacetylated by intracellular esterases and thus forms H2DCF. This product is oxidized by intracellular AOSs into a highly fluorescent compound: 2′,7′-dichlorofluorescein (DCF) (Suematsu M et al., 1996, Free Radicals Practical Approach, Punchard ed. P 83-99).
# The materials and methods used for in vitro assay of intracellular AOSs are given below. • a) Cell tool • Cutaneous murin fibroblast cell line L929. • b) Materials • 96 well flat based microplate. • Cytofluor II cytofluorameter: Ref. PERCEPTIVE BIOSYSTEMS. • c) Reagents • Cell culture reagents: • Dulbecco's Modified Eagle Medium as the culture medium (DMEM) • Foetal calf serum • Phosphate buffer PBS pH 7.4 • Trypsin EDTA (1X) Fluorescent probe • 6-carboxy-2′,7′-dichlorodihydrofluorescein diacetate, di(acetoxymethyl ester) (PM.675,43) Cell stimulation products • Hydrogen peroxide (H2O2) 3% Ref. GIFRER (Gifrer Barbezat Laboratory) • Ferrous ammonium sulphate (Fe^2+) • Ferric ammonium sulphate (Fe^3+) • d) Products tested:
# For the evaluation of unsaturated fatty hydroxy acid derivatives, the dilutions are prepared in freshly prepared culture medium for a concentration range of 0.02, 0.2, 2 and 20 ng/ml. • e) Protocol. Cell culturing.
# Cells from the fibroblast line L929 were cultured in 96-well flat base microplates in 100 μl of DMEM supplemented with 10% foetal calf serum. These were incubated overnight at 37° C. in a humid atmosphere at 5% CO2. The blank plate without cells was evaluated using 6 wells.
# Dilutions of the products to be tested and reference molecule were made up in culture medium without foetal calf serum then deposited in 7 wells at a rate of 100 μl per well.
# Cells were then incubated for 3 hours at 37° C. in a humid atmosphere at 5% CO2.
# Cells were rinsed in PBS 1X at a rate of 100 μl per well. They were then incubated for 30 minutes at 37° C. in a humid atmosphere at 5% CO2 with 50 μl of the H2DCF-DA probe at 5 μM.
# After 30 minutes of contact with the probe alone, cells were incubated for 30 minutes at 37° C. in a humid atmosphere at 5% CO2 with the addition of 25 μl of H2O2 at 800 μM and 25 μl of ferrous iron and ferric iron solution at 8 mM in order to obtain final concentrations of 200 μM of H2O2 and 2 mM of ferrous iron and ferric iron.
# Cells were then rinsed with PBS 1X at a rate of 100 μl per well then incubated for 30 minutes at 37° C. in a humid atmosphere at 5% CO2 with 100 μl of PBS 1X.
# This incubation for 1 h 30 minutes at 37° C. allows intracellular esterases to deacetylate the probe into H2DCF which can be oxidized by the intracellular AOSs into DCF: a fluorescent compound whose formation is proportional to the quantity of intracellular AOSs.
# The intensity of fluorescence is read on a cytofluorimeter at λexcitation=485 nm and λemission=530 nm. This reflects the amount of intracellular AOS produced.
# The ratio below makes it possible to calculate the % protection against the production of intracellular AOSs for each product concentration tested (because the intensity of fluorescence or IF reflects the release of intracellular AOSs)
# • Pre-incubation: 3 h • Number of tests=3 for all compounds. • Number of tests=18 for vit. E
# transglutaminase 1 (TG1) = test: keratinocyte differentiation, real-time RT-PCR of transglutaminase 1 transcripts; format: cell-based, human; settings: NHK, 48 hours
# Description: as §1, §2, §3, §4
# desaturase DES2 = test: keratinocyte differentiation, real-time RT-PCR of DES2 transcripts; format: cell-based, human; settings: NHK, 48 hours
# Description: as §1, §2, §3, §4
# FATP4 = test: keratinocyte differentiation, real-time RT-PCR of FATP4 transcripts; format: cell-based, human; settings: NHK, 48 hours
# Description: as §1, §2, §3, §4
# [2] = test system: membrane lipids, fibroblast line L929; test: TBARS test, lipid peroxidation after H2O2/Fe2+/Fe3+; format: cell-based, murin; settings: 0.02 ng/ml, pretreated 16 hours
# From the text: In order to evaluate membrane changes, we measured lipid peroxidation by in vitro assay of complexes between the products of lipid oxidation and thiobarbituric acid. These complexes are called TBARS (thiobarbituric acid reactive substances) and give the test its name: TBARS Test.
# In order to mimic chemical oxidative stress, we treated a fibroblast line (L929) with a complex consisting of hydrogen peroxide (H2O2) and iron (Fe^2+/Fe^3+) thus reconstituting the Fenton reaction which is the source of oxygenated free radicals and particularly the hydroxyl radical (OH°) (D. A Vessey et al. 1992): H2O2+Fe^2+→OH°+OH^−+Fe^3+
# The products were evaluated on a murin fibroblast line L929. Cells were pretreated with different concentrations of the product for 16 hours and were then stimulated with the H2O2/Fe^2+/Fe^3+ complex (200 μM−1 mM) for 1 hour. • Stock solutions: 100 mg/ml ethanol, 4° C. • Final solutions: 0.02 ng/ml.
# Peroxidation of membrane lipids was analysed by measuring TBARS (Protocol ref. PLN°2, according to Morliere et al, 1991).
# […]. TBARS assays are therefore expressed in pmole/μg of protein. Proteins and TBARS are assayed in the intracellular medium.
# Using the TBARS calculation in pmole/μg protein, we calculated the protective efficacy of various products against the oxidation of lipid membranes.
# Four separate experiments were carried out. Several compounds were evaluated in the course of these experiments (the test only allows 10 molecules to be evaluated at one time). The compounds were evaluated several times and were chosen as a function of the results obtained in another test which also measured anti-radical activity (assay test for activated oxygen species).
# The model used in this experiment (Fenton reaction) triggers considerable lipid peroxidation of the L929 fibroblasts. This massive release of the hydroxyl radical OH° thus generates oxidative stress in the cells, particularly in the membranes. However, in this type of oxidative reaction, the products resulting from lipid peroxidation are internalized in the cells and TBARS are therefore assayed in the intracellular medium.
# PAR-2 receptors = molecular target: T1, PAR-2 receptors (Homo sapiens, UniProt P55085); test: calcium flux induced by trypsin stimulation of PAR-2 receptors in HaCaT keratinocytes (Fluo-4/AM); format: cell-based; settings: trypsin 10 nM
# T1 construct: PAR-2 receptors for trypsin present in human keratinocytes from the HaCaT line; endogenous in cells; host or cells: HaCaT human keratinocytes
# T1 sequence (P55085 26-397): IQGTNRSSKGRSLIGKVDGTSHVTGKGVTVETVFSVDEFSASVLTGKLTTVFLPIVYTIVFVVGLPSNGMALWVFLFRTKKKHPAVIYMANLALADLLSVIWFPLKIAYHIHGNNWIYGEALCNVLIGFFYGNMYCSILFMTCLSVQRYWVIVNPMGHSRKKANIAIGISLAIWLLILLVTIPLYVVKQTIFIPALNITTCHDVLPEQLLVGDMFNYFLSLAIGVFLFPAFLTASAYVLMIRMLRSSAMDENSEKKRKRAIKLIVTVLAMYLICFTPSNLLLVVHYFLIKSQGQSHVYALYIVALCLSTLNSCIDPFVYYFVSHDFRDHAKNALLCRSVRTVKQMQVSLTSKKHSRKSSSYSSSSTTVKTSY
# From the text: We therefore considered evaluating anti-PAR-2 activity of hydroxyl acid derivatives of formula I on the influx of intracellular calcium induced after specific stimulation by PAR-2 receptors for trypsin present in human keratinocytes from the HaCaT line.
# This technique is based on the use of an esterified fluorescent probe by an AM group which facilitates its penetration by passive diffusion into the cell. The probe used is Fluo-4/AM. Only the de-esterified form bound to the calcium ion is excitable in fluorescence (at 485 nm) and emits at 535 nm.
# In vitro, at the cell level, specific stimulation of the PAR-2 receptors by trypsin leads to mobilisation of intra and extracellular calcium detected with the aid of the fluorescent probe.
# Interleukin 8 = test: release of Interleukin 8 by keratinocytes NHK stimulated with PMA + calcium ionophore A23187 (ELISA); format: cell-based, human; settings: 3 μg/ml, keratinocytes, PMA + A23187 6 hours
# Description: In this study, carried out using 96 well plates, we evaluated the activity of hydroxyl alkine acids on the production of Interleukin 8 produced in the keratinocytes by phorbol ester PMA and calcium ionophore A23187.
# A suspension of keratinocytes in supplemented KSFM was divided between 96 well plates (3.10^4 cells/wells) and incubated for 16 hours at 37° C. under an atmosphere of 5% CO2. The keratinocytes were then rinsed with PBS in order to eliminate non adhering cells then exposed to the products to be tested included in non supplemented KSFM (which could interfere with the assay).
# The concentration tested in culture was 3 μg/ml. This was retained after a preliminary test to evaluate cytotoxicity (neutral red) and is not cytotoxic.
# 3 wells were used for each treatment. Cells were preincubated for 60 minutes with the products to be tested then stimulated, in parallel to negative controls without stimulant: Phorbol Myristate Acetate (PMA) 1 μm+Calcium ionophore (A23187) 0.1 μm.
# Incubation for 6 hours at 37° C. in a humid air atmosphere containing 5% CO2.
# The culture medium for each of the wells was recovered, centrifuged at 3000 rpm and stored at −80° C.
# Cytokine assay: IL8 was assayed using the ELISA kit immunoenzyme method (immunotech).
# The results are given as percentage activity/stimulated control.
# The compounds according to the invention were evaluated in terms of anti-inflammatory activity on the release of Interleukin 8 by human keratinocytes NHK stimulated by phorbol ester PMA+calcium ionophore A23187.
# [3] = Mus musculus, 0.2 ng/ml, read-out: Percentage inhibition of the intracellular production of AOS
SMILES,Induction Factor vs Control (CaCl2 1.2 mM) ABCG1 (ABCG1; 1 μg/ml),Induction Factor vs Control (CaCl2 1.2 mM) ABCG1 (ABCG1; 100 μg/ml),"inhibition at 0.0002 µg/mL [1, 3] [%]",Induction Factor vs Control (CaCl2 1.2 mM) TG1 (transglutaminase 1 (TG1); 1 μg/ml),Induction Factor vs Control (CaCl2 1.2 mM) TG1 (transglutaminase 1 (TG1); 100 μg/ml),Induction Factor vs Control (CaCl2 1.2 mM) DES2 (desaturase DES2; 1 μg/ml),Induction Factor vs Control (CaCl2 1.2 mM) DES2 (desaturase DES2; 100 μg/ml),Induction Factor vs Control (CaCl2 1.2 mM) FATP4 (FATP4; 1 μg/ml),Induction Factor vs Control (CaCl2 1.2 mM) FATP4 (FATP4; 100 μg/ml),"% membrane lipid protection, Mean [2] [%]",other results
"O=C(O)/C=C/CCCCCCCO [n=6, R=H, Rn=H, R1=H, DHA]",1.9,6.6,33,1.1,12.3,1.7,11.5,1.2,2.5,52.91,
"O=C(O)C(F)=CCCCCCCCO [n=6, R=H, Rn=H, R1=F, 10-hydroxy-dec-2-fluoro-2 enoic acid]",1.3,6.3,4,1.2,7.8,1.3,10.3,1.0,1.9,40.65,"inhibition at 20 pg/mL ([1]; Mus musculus, 0.02 ng/ml, read-out: Percentage inhibition of the intracellular production of AOS): 15%; inhibition at 0.002 µg/mL ([1]; Mus musculus, 2 ng/ml, read-out: Percentage inhibition of the intracellular production of AOS): 5%; inhibition at 0.02 µg/mL ([1]; Mus musculus, 20 ng/ml, read-out: Percentage inhibition of the intracellular production of AOS): -9%"
"O=C(O)/C=C/CCCCCCCCCCCCCCCO [n=14, R=H, Rn=H, R1=H, 18-hydroxy-octadec-2t-enoic acid]",,,,,,,,,,,% inhibition (PAR-2 receptors; 10 μg/ml): −10%; % stimulation (PAR-2 receptors; 10 μg/ml): 14.68%; % inhibition (PAR-2 receptors; 30 μg/ml): 8%; % stimulation (PAR-2 receptors; 30 μg/ml): 12.90%; % inhibition (PAR-2 receptors; 100 μg/ml): 23%; % stimulation (PAR-2 receptors; 100 μg/ml): 11.37%; % inhibition of IL-8 release (Interleukin 8): Non-active
"O=C(O)/C=C/CCCCCCO [n=5, R=H, Rn=H, R1=H, 9-hydroxy-nona-2t-enoic acid]",2.7,,,1.5,,1.8,,1.0,,,Percentage inhibition of the intracellular production of AOS ([1]; 0.02 ng/ml): 56%; Percentage inhibition of the intracellular production of AOS ([1]; 0.2 ng/ml): 47%; Percentage inhibition of the intracellular production of AOS ([1]; 2 ng/ml): 46%; Percentage inhibition of the intracellular production of AOS ([1]; 20 ng/ml): 36%
